According to ChEMBL document CHEMBL6092167, “Phosphorylation as an Effective Tool to Improve Stability and Reduce Toxicity of Antimicrobial Peptides” (J Med Chem, 2024):
Values after ≈ are worked out from the molar mass of the structure shown. Non-standard residues stand in square brackets, D forms with d. Residues, ends and D or L forms follow the SMILES beside them. Bip = N[C@@H](Cc1ccc(-c2ccccc2)cc1)C(=O)O; pY = N[C@@H](Cc1ccc(OP(=O)(O)O)cc1)C(=O)O; pT = C[C@@H](OP(=O)(O)O)[C@H](N)C(=O)O; 2Nal = N[C@@H](Cc1ccc2ccccc2c1)C(=O)O

How the values were obtained:
Staphylococcus aureus [1] = experiment: Antibacterial activity against methicillin resistant Staphylococcus aureus 48 incubated for 18 to 24 hrs by broth microdilution method; assay type: functional; conditions: time 18-24 hrs
Staphylococcus aureus [2] = experiment: Antibacterial activity against methicillin resistant Staphylococcus aureus ATCC 33591 incubated for 18 to 24 hrs by broth microdilution method; assay type: functional; conditions: time 18-24 hrs
Klebsiella pneumoniae = experiment: Antibacterial activity against Klebsiella pneumoniae ATCC 700603 incubated for 18 to 24 hrs by broth microdilution method; assay type: functional; conditions: time 18-24 hrs
Pseudomonas aeruginosa [3] = experiment: Antibacterial activity against Pseudomonas aeruginosa ATCC 27853 incubated for 18 to 24 hrs by broth microdilution method; assay type: functional; conditions: time 18-24 hrs
Acinetobacter baumannii = experiment: Antibacterial activity against Acinetobacter baumannii ATCC 19606 incubated for 18 to 24 hrs by broth microdilution method; assay type: functional; conditions: time 18-24 hrs
Staphylococcus aureus [4] = experiment: Antibacterial activity against Staphylococcus aureus ATCC 25923 incubated for 18 to 24 hrs by broth microdilution method; assay type: functional; conditions: time 18-24 hrs
Bacillus subtilis = experiment: Antibacterial activity against Bacillus subtilis ATCC 23857 incubated for 18 to 24 hrs by broth microdilution method; assay type: functional; conditions: time 18-24 hrs
Escherichia coli [5] = experiment: Antibacterial activity against Escherichia coli 780 incubated for 18 to 24 hrs by broth microdilution method; assay type: functional; conditions: time 18-24 hrs
Escherichia coli [6] = experiment: Antibacterial activity against Escherichia coli 850 incubated for 18 to 24 hrs by broth microdilution method; assay type: functional; conditions: time 18-24 hrs
[7] = Cytotoxicity against HEK293T cells incubated for 1 hr by fluorescence based microplate reader assay; assay type: toxicity, cell-based, HEK-293T; conditions: human
Pseudomonas aeruginosa [8] = experiment: Antibacterial activity against Pseudomonas aeruginosa 119 incubated for 18 to 24 hrs by broth microdilution method; assay type: functional; conditions: time 18-24 hrs
Staphylococcus aureus [9] = experiment: Antibacterial activity against Staphylococcus aureus 794 incubated for 18 to 24 hrs by broth microdilution method; assay type: functional; conditions: time 18-24 hrs
Escherichia coli [10] = experiment: Antibacterial activity against Escherichia coli ATCC 25922 incubated for 18 to 24 hrs by broth microdilution method; assay type: functional; conditions: time 18-24 hrs
[11] = Hemolytic activity in mouse erythrocyte incubated for 1 hr by microplate reader assay; assay type: toxicity, cell-based

Structure (SMILES) | MIC (Staphylococcus aureus [1]) [µM] | MIC (Staphylococcus aureus [2]) [µM] | MIC (Klebsiella pneumoniae) [µM] | MIC (Pseudomonas aeruginosa [3]) [µM] | MIC (Acinetobacter baumannii) [µM] | MIC (Staphylococcus aureus [4]) [µM] | MIC (Bacillus subtilis) [µM] | MIC (Escherichia coli [5]) [µM] | MIC (Escherichia coli [6]) [µM] | CC50 at 1 h [7] [µM] | MIC (Pseudomonas aeruginosa [8]) [µM] | MIC (Staphylococcus aureus [9]) [µM] | MIC (Escherichia coli [10]) [µM] | MHC [11] [µM]
CC(C)C[C@H](NC(=O)[C@H](CC(C)C)NC(=O)[C@H](Cc1ccc(OP(=O)(O)O)cc1)NC(=O)[C@H](CCCCN)NC(=O)[C@H](Cc1c[nH]c2ccccc12)NC(=O)[C@H](CCCNC(=N)N)NC(=O)[C@H](CCCCN)NC(=O)[C@H](CC(C)C)NC(=O)[C@H](CC(C)C)NC(=O)CN)C(N)=O (H-GLLKRWK[pY]LL-NH2) | > 128 | > 128 | 128 (≈ 175 µg/mL) | 128 (≈ 175 µg/mL) | 64 (≈ 87.6 µg/mL) | > 128 | 64 (≈ 87.6 µg/mL) | 64 (≈ 87.6 µg/mL) | 64 (≈ 87.6 µg/mL) | > 128 | 128 (≈ 175 µg/mL) | 32 (≈ 43.8 µg/mL) | 64 (≈ 87.6 µg/mL) | > 256
CC(C)C[C@H](NC(=O)[C@H](CC(C)C)NC(=O)[C@@H](NC(=O)[C@H](CCCCN)NC(=O)[C@H](Cc1ccc2ccccc2c1)NC(=O)[C@H](CCCNC(=N)N)NC(=O)[C@H](CCCCN)NC(=O)[C@H](CC(C)C)NC(=O)[C@H](CC(C)C)NC(=O)CN)[C@@H](C)O)C(N)=O (H-GLLKR[2Nal]KTLL-NH2) | 16 (≈ 19.8 µg/mL) | 16 (≈ 19.8 µg/mL) | 16 (≈ 19.8 µg/mL) | 4 (≈ 4.95 µg/mL) | 32 (≈ 39.6 µg/mL) | 16 (≈ 19.8 µg/mL) | 4 (≈ 4.95 µg/mL) | 8 (≈ 9.9 µg/mL) | 16 (≈ 19.8 µg/mL) | 177 | 16 (≈ 19.8 µg/mL) | 8 (≈ 9.9 µg/mL) | 16 (≈ 19.8 µg/mL) | > 256
CC(C)C[C@H](NC(=O)[C@H](CC(C)C)NC(=O)[C@@H](NC(=O)[C@H](CCCCN)NC(=O)[C@H](Cc1ccc2ccccc2c1)NC(=O)[C@H](CCCNC(=N)N)NC(=O)[C@H](CCCCN)NC(=O)[C@H](CC(C)C)NC(=O)[C@H](CC(C)C)NC(=O)CN)[C@@H](C)OP(=O)(O)O)C(N)=O (H-GLLKR[2Nal]K[pT]LL-NH2) | > 128 | > 128 | > 128 | 128 (≈ 169 µg/mL) | 128 (≈ 169 µg/mL) | > 128 | 128 (≈ 169 µg/mL) | > 128 | 128 (≈ 169 µg/mL) | > 128 | 128 (≈ 169 µg/mL) | 128 (≈ 169 µg/mL) | > 128 | > 256
CC(C)C[C@H](NC(=O)[C@H](CC(C)C)NC(=O)[C@@H](NC(=O)[C@H](CCCCN)NC(=O)[C@H](Cc1ccc(-c2ccccc2)cc1)NC(=O)[C@H](CCCNC(=N)N)NC(=O)[C@H](CCCCN)NC(=O)[C@H](CC(C)C)NC(=O)[C@H](CC(C)C)NC(=O)CN)[C@@H](C)O)C(N)=O (H-GLLKR[Bip]KTLL-NH2) | 8 (≈ 10.1 µg/mL) | 8 (≈ 10.1 µg/mL) | 8 (≈ 10.1 µg/mL) | 4 (≈ 5.05 µg/mL) | 16 (≈ 20.2 µg/mL) | 16 (≈ 20.2 µg/mL) | 4 (≈ 5.05 µg/mL) | 8 (≈ 10.1 µg/mL) | 8 (≈ 10.1 µg/mL) | 127 | 16 (≈ 20.2 µg/mL) | 8 (≈ 10.1 µg/mL) | 8 (≈ 10.1 µg/mL) | 145.56
CC(C)C[C@H](NC(=O)[C@H](CC(C)C)NC(=O)[C@H](Cc1ccc(O)cc1)NC(=O)[C@H](CCCCN)NC(=O)[C@H](Cc1ccc(-c2ccccc2)cc1)NC(=O)[C@H](CCCNC(=N)N)NC(=O)[C@H](CCCCN)NC(=O)[C@H](CC(C)C)NC(=O)[C@H](CC(C)C)NC(=O)CN)C(N)=O (H-GLLKR[Bip]KYLL-NH2) | 8 (≈ 10.6 µg/mL) | 8 (≈ 10.6 µg/mL) | 8 (≈ 10.6 µg/mL) | 8 (≈ 10.6 µg/mL) | 16 (≈ 21.2 µg/mL) | 8 (≈ 10.6 µg/mL) | 4 (≈ 5.3 µg/mL) | 8 (≈ 10.6 µg/mL) | 8 (≈ 10.6 µg/mL) | 82.3 | 8 (≈ 10.6 µg/mL) | 8 (≈ 10.6 µg/mL) | 8 (≈ 10.6 µg/mL) | 99.53
CC(C)C[C@H](NC(=O)[C@H](CC(C)C)NC(=O)[C@@H](NC(=O)[C@H](CCCCN)NC(=O)[C@H](Cc1ccc(-c2ccccc2)cc1)NC(=O)[C@H](CCCNC(=N)N)NC(=O)[C@H](CCCCN)NC(=O)[C@H](CC(C)C)NC(=O)[C@H](CC(C)C)NC(=O)CN)[C@@H](C)OP(=O)(O)O)C(N)=O (H-GLLKR[Bip]K[pT]LL-NH2) | 128 (≈ 172 µg/mL) | 128 (≈ 172 µg/mL) | 128 (≈ 172 µg/mL) | 64 (≈ 86 µg/mL) | 64 (≈ 86 µg/mL) | 128 (≈ 172 µg/mL) | 32 (≈ 43 µg/mL) | 32 (≈ 43 µg/mL) | 64 (≈ 86 µg/mL) | 131 | 128 (≈ 172 µg/mL) | 32 (≈ 43 µg/mL) | 64 (≈ 86 µg/mL) | > 256
CC(C)C[C@H](NC(=O)[C@H](CC(C)C)NC(=O)[C@H](Cc1ccc(OP(=O)(O)O)cc1)NC(=O)[C@H](CCCCN)NC(=O)[C@H](Cc1ccc(-c2ccccc2)cc1)NC(=O)[C@H](CCCNC(=N)N)NC(=O)[C@H](CCCCN)NC(=O)[C@H](CC(C)C)NC(=O)[C@H](CC(C)C)NC(=O)CN)C(N)=O (H-GLLKR[Bip]K[pY]LL-NH2) | 8 (≈ 11.2 µg/mL) | 8 (≈ 11.2 µg/mL) | 16 (≈ 22.5 µg/mL) | 32 (≈ 45 µg/mL) | 8 (≈ 11.2 µg/mL) | 16 (≈ 22.5 µg/mL) | 8 (≈ 11.2 µg/mL) | 16 (≈ 22.5 µg/mL) | 16 (≈ 22.5 µg/mL) | 110 | 32 (≈ 45 µg/mL) | 8 (≈ 11.2 µg/mL) | 8 (≈ 11.2 µg/mL) | 131.69
